These results are taken from patent US20110003892A1, “ALL-TRANS RETINOID ESTERS AS ACTIVE PHARMACEUTICAL INGREDIENTS, ORAL AND TOPICAL DOSAGE FORM COMPOSITIONS THEREOF, AND METHODS OF TREATING SKIN CONDITIONS THEREOF” (priority 2008, published 2011).

Data set [1] in a line: Body weight change from baseline in orally dosed Rhino mice. Particulars: oral treatment, 24 days, any dose of retinoid studied (FIG. 2). It is filed as in vivo. How it is done: (§1) Animals and dose administration. Rhino mice 6-8 weeks old were orally dosed. The mice were dosed daily. The mice were weighed three times per week, and doses were adjusted weekly based on body weight. The oral formulation was made by mixing each API with Wesson® soybean oil. The oral dose was delivered to the back of the mouth of each mouse. Mice were sacrificed 4 hours after the final oral dose. At sacrifice, the dorsal skin was collected for histological studies.

A further data set concerns Rhino mice. Nature of the data set: Comedolytic effect in orally dosed Rhino mice (comedone area by histology). It is filed as in vivo. Particulars: oral treatment; for dose producing maximal reduction in comedone size as compared to the vehicle control: 24 days (FIG. 1); for reduction in comedone area: each retinoid alone, 24 days, various doses (FIG. 1). Here is the method: as §1
Comedolytic effect. The extent of the comedolytic effect (i.e., efficacy) was assessed by measuring the average area of the comedones, whereby the smaller the area, the larger the effect and efficacy. The comedone area was determined by histological analysis of tissue sections. Skin was fixed overnight in 4% paraformaldehyde at 4° C. with gentle agitation, and the skin was dehydrated the next day in 100% methanol. Samples were embedded in paraffin and a qty. nine 10μ sections each spaced 150μ apart were prepared from each Rhino mouse. Five of the nine sections were digitally imaged (6× magnification) for comedone analysis using Metamorph Imaging Software (trace function).
The perimeter of each imaged comedone taken from the 5 sections was traced using a Wacom Intuos 3 Graphics Tablet interfaced with the software. The number of pixels representing each individual comedone area was obtained. The mean number of pixels per comedone was obtained for each Rhino mouse. For comedones that were completely healed (i.e., area=0), a pixel value approaching 0 (<10) was assessed. The individual comedone average for each mouse was used to calculate the treatment group mean. Results in the figures herein have been expressed in terms of mean±standard error of the mean.
Preparation of oral retinoid dosing formulations. A concentrated stock solution containing each retinoid was prepared in dichloromethane. The retinoid concentrated stock solution was diluted into ethanol. The concentration of retinoid in that diluted stock solution was determined spectrophotometrically, whereby the molar extinction coefficient=44,340 and λmax=350. The purity of the SB-RA, IPE-RA, IB-RA, and t-butyl RA was determined to be greater than 98% by HPLC. A predetermined volume of retinoid-containing solution was added to Wesson® oil, the sample was mixed, and the residual dichloromethane was removed by flushing the oil with argon for 2-3 hours under a vapor hood. The final dose was delivered orally using ≦50 μL of oil.

The subject of a further data set is RARs. Particulars: Repa J J et al., 1993; cited from earlier work.

For the compound `CC1=C(/C=C/C(C)=C/C=C/C(C)=C/C(=O)OC(C)(C)C)C(C)(C)CCC1` [t-butyl-RA, all-trans-retinoic acid tert-butyl ester], the “% change from the starting baseline weight (overall group weight)” value (“% change” below) in data set [1] is given as “no significant reduction”. In addition, in the data set on Rhino mice, the “dose producing maximal reduction in comedone size as compared to the vehicle control” value (from here on “dose producing maximal reduction”) was determined as 166 μmole/kgBW and the “reduction in comedone area” value is “significant dose-dependent reduction”.
Consider `CC1=C(/C=C/C(C)=C/C=C/C(C)=C/C(=O)OC(C)C)C(C)(C)CCC1` [IPE-RA, all-trans-retinoic acid iso-propyl ester], for which the “% change” value in data set [1] is recorded as “no significant reduction”. Moreover, in the data set on Rhino mice, the “dose producing maximal reduction” value is 26.2 μmole/kgBW and the “reduction in comedone area” value is “significant dose-dependent reduction”.
For `CCC(C)OC(=O)/C=C(C)/C=C/C=C(C)/C=C/C1=C(C)CCCC1(C)C` (stereo not drawn) [SB-RA, all-trans-retinoic acid sec-butyl ester] the same measures were “no significant reduction”, 26.2 μmole/kgBW and “significant dose-dependent reduction”.
On to `CC1=C(/C=C/C(C)=C/C=C/C(C)=C/C(=O)OCC(C)C)C(C)(C)CCC1` [IB-RA, All-trans-retinoic acid iso-butyl ester], for which the “% change” value in data set [1] is listed as “no significant reduction”. For the same compound, in the data set on Rhino mice, the “dose producing maximal reduction” value came to 26.2 μmole/kgBW and the “reduction in comedone area” value is reported as “significant dose-dependent reduction”.
As for `CC1=C(/C=C/C(C)=C/C=C/C(C)=C\C(=O)O)C(C)(C)CCC1` [13-cis retinoic acid], in the data set with RARs, the “binding to the RARs” value is given as “does not bind”.
